Laboratory results taken from patent publication US12061201B2, “Fluorescent probes for the visualization of FtsZ in gram-positive and gram-negative bacterial pathogens” (Rutgers, The State University of New Jersey, priority 2019, dated 2024).
Where two headings read alike, the source gives them in different places.

Assays:
Assay in all cases: Fluorescence anisotropy binding of BOFP to FtsZ
[1] = target: T1, Acinetobacter baumannii FtsZ (AbFtsZ) (Acinetobacter baumannii, UniProt V5V8B6); conditions: for Kd: 50 mM Tris-HCl (pH 7.6), 50 mM KCl
T1 sequence (V5V8B6 1-391): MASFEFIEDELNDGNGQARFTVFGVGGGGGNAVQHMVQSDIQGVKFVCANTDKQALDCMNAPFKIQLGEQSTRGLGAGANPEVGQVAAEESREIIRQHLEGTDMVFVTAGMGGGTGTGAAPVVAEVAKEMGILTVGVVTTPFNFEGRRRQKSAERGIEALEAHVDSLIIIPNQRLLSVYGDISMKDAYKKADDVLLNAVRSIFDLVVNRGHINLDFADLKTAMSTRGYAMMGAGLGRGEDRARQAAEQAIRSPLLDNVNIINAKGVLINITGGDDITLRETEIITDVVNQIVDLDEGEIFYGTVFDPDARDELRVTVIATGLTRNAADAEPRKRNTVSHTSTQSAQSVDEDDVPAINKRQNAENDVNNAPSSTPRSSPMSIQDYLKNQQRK
Protocol: (§1) Fluorescence anisotropy assay for determining the affinities and thermodynamics associated with the binding of BOFP to FtsZ proteins. Fluorescence anisotropy experiments were performed using an AVIV model ATF105 spectrofluorometer at 15, 25, or 37° C. In these experiments, bandwidths were set to 4 nm in both the excitation and emission directions, with the excitation and emission wavelengths being set at 488 nm and 510 nm, respectively. BOFP (0.1 μM) was titrated with increasing concentrations (ranging from 0 to 12 μM) of FtsZ in 120 μL of buffer containing 50 mM Tris-HCl (pH 7.6) and 50 mM KCl. After each protein addition, the samples were equilibrated for 3 minutes, whereupon the fluorescence anisotropy was measured.
(§2) [formula] In this equation, r0 is the anisotropy of the protein-free compound, r∞ is the anisotropy of the compound in the presence of an infinite concentration of FtsZ, [C]tot is the total concentration of the compound, and [P]tot is the total concentration of protein with each addition. These analyses yielded the equilibrium dissociation constant (Kd) for each binding reaction.
(§3) The binding free energy (ΔG) at temperature T was derived from the corresponding Kd value determined at T using the following relationship:
(§4) [formula] The binding enthalpy (ΔH) and entropy (ΔS) were derived from linear fits of the ln(1/Kd) vs. 1/T plots shown in FIGS. 3f and 5e using the following relationship:
(§5) A quartz ultra-micro cell (Hellma) with a 2×5 mm aperture and a 15 mm center height was used for all measurements. The pathlengths in the excitation and emissions directions were 1 and 0.2 cm, respectively. All steady-state anisotropy experiments were conducted in at least triplicate, with the reported anisotropies reflecting the average values.

[2] = target: Escherichia coli FtsZ (EcFtsZ) (Escherichia coli, UniProt P0A9A6); conditions: for Kd: 50 mM Tris-HCl (pH 7.6), 50 mM KCl
Protocol: as §1, §2, §3, §4, §5

[3] = target: T2, Streptococcus pneumoniae FtsZ (SpnFtsZ) (Streptococcus pneumoniae, UniProt A0A0H2ZNE0); conditions: for Kd: 50 mM Tris-HCl (pH 7.6), 50 mM KCl
T2 sequence (A0A0H2ZNE0 1-419): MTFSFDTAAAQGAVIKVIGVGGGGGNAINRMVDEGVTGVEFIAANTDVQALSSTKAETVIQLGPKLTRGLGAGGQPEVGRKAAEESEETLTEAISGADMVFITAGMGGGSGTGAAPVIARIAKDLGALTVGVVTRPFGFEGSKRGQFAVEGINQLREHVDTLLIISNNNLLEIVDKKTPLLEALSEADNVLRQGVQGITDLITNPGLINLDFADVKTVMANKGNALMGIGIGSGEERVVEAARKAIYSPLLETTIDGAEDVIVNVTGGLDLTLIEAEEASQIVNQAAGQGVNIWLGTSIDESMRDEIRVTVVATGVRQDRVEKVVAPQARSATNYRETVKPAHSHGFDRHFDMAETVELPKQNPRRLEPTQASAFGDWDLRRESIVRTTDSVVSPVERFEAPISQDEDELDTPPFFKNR
Protocol: as §1, §2, §3, §4, §5

S. aureus FtsZ (SaFtsZ) = target: T3, S. aureus FtsZ (SaFtsZ) (Staphylococcus aureus, UniProt P0A031)
T3 sequence (P0A031 1-390): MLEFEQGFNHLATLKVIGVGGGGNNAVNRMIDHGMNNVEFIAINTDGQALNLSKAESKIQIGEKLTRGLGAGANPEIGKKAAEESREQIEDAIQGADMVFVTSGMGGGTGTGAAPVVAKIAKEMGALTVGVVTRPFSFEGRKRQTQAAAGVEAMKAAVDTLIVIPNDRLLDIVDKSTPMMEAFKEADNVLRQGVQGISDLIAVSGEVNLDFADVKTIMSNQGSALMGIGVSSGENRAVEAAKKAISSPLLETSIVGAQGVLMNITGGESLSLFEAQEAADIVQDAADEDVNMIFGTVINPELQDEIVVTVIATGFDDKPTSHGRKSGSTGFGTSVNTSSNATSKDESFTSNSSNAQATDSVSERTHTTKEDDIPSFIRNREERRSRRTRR
Protocol: as §1, §2, §3, §4, §5

[4] = target: T4, Pseudomonas aeruginosa FtsZ (PaFtsZ) (Pseudomonas aeruginosa, UniProt P47204); conditions: for Kd: 50 mM Tris-HCl (pH 7.6), 50 mM KCl
T4 sequence (P47204 1-394): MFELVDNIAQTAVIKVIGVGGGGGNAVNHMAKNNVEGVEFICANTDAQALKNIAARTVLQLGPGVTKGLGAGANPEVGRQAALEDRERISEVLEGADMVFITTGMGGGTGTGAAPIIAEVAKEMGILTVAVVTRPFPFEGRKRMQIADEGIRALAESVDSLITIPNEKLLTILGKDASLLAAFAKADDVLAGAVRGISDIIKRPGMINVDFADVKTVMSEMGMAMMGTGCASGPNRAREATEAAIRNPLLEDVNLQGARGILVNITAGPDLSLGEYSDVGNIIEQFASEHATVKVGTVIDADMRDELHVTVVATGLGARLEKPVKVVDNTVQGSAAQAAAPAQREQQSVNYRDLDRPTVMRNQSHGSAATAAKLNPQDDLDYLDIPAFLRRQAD
Protocol: as §1, §2, §3, §4, §5

[5] = linear fit of ln(1/Kd) vs. 1/T, Eq. 3
[6] = SaFtsZ, linear fit of ln(1/Kd) vs. 1/T, Eq. 3

Sequence of Escherichia coli FtsZ (EcFtsZ) (P0A9A6 whole entry): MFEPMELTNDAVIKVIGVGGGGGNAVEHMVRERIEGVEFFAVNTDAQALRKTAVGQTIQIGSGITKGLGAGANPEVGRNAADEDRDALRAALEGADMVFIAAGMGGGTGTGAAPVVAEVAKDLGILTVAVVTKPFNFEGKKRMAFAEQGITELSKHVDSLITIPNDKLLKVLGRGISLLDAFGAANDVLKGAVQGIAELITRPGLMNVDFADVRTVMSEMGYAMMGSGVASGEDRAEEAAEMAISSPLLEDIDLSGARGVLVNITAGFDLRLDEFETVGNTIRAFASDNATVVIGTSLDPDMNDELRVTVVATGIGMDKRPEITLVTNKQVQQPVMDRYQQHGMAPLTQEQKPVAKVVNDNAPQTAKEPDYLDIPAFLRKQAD

SMILES: CC1=CC(C)=[N+]2C1=Cc1ccc(CCC(=O)OCC(Oc3ccc(F)c(C(N)=O)c3F)c3nc(-c4ccc(C(F)(F)F)cc4)c(Br)o3)n1[B-]2(F)F (centres unmarked) [BOFP, 2-(5-bromo-4-(4-(trifluoromethyl)phenyl)-oxazol-2-yl)-2-(3-carbamoyl-2,4-difluorophenoxy)ethyl 3-(5,5-difluoro-7,9-dimethyl-5H-5λ^4,6λ^4-dipyrrolo[1,2-c:2′,1′-f][1,3,2]diazaborinin-3-yl)propanoate]
- ΔS contribution to the observed ΔG of binding [1]: > 50%
- Kd ([1]; 15° C., read-out: Kd −15° C.): 400 ± 30 nM
- Kd ([1]; 25° C., read-out: Kd −25° C.): 550 ± 20 nM
- Kd ([1]; 37° C., read-out: Kd −37° C.): 680 ± 40 nM
- ΔH [1, 5]: -4.2 ± 0.6 kcal/mol
- ΔS [1, 5]: +14.5 ± 2.1 cal/mol · K
- ΔH contribution to the observed ΔG of binding [2]: > 50%
- Kd ([2]; 15° C., read-out: Kd −15° C.): 220 ± 30 nM
- Kd ([2]; 25° C., read-out: Kd −25° C.): 280 ± 20 nM
- Kd ([2]; 37° C., read-out: Kd −37° C.): 440 ± 40 nM
- ΔG ([2]; T = 310K (37° C.), Eq. 2): -9.0 ± 0.1 kcal/mol
- ΔH [2, 5]: -5.6 ± 0.8 kcal/mol
- ΔS [2, 5]: +11.2 ± 2.7 cal/mol · K
- ΔS contribution to the observed ΔG of binding [3]: > 50%
- Kd ([3]; 15° C., read-out: Kd −15° C.): 3020 ± 300 nM
- Kd ([3]; 25° C., read-out: Kd −25° C.): 3490 ± 250 nM
- Kd ([3]; 37° C., read-out: Kd −37° C.): 3810 ± 690 nM
- ΔG ([3]; T = 310K (37° C.), Eq. 2): -7.7 ± 0.1 kcal/mol
- ΔH [3, 5]: -1.9 ± 0.3 kcal/mol
- ΔS [3, 5]: +18.7 ± 1.2 cal/mol · K
- Kd (S. aureus FtsZ (SaFtsZ)): 880 to 3140 nM
- enthalpic contribution (ΔH) to the observed ΔG of binding (S. aureus FtsZ (SaFtsZ); SaFtsZ): 100%
- Kd (S. aureus FtsZ (SaFtsZ); SaFtsZ, 15° C., 50 mM Tris-HCl (pH 7.6), 50 mM KCl, read-out: Kd −15° C.): 880 ± 80 nM
- Kd (S. aureus FtsZ (SaFtsZ); SaFtsZ, 25° C., 50 mM Tris-HCl (pH 7.6), 50 mM KCl, read-out: Kd −25° C.): 1660 ± 120 nM
- Kd (S. aureus FtsZ (SaFtsZ); SaFtsZ, 37° C., 50 mM Tris-HCl (pH 7.6), 50 mM KCl, read-out: Kd −37° C.): 3140 ± 130 nM
- ΔG (S. aureus FtsZ (SaFtsZ); SaFtsZ, T = 310K (37° C.), Eq. 2): -7.8 ± 0.1 kcal/mol
- ΔH (S. aureus FtsZ (SaFtsZ); [6]): -10.2 ± 0.3 kcal/mol
- ΔS (S. aureus FtsZ (SaFtsZ); [6]): −7.8 ± 1.0 cal/mol · K
- ΔH contribution to the observed ΔG of binding [4]: > 50%
- Kd ([4]; 15° C., read-out: Kd −15° C.): 230 ± 20 nM
- Kd ([4]; 25° C., read-out: Kd −25° C.): 360 ± 60 nM
- Kd ([4]; 37° C., read-out: Kd −37° C.): 580 ± 60 nM
- ΔG ([4]; T = 310K (37° C.), Eq. 2): -8.8 ± 0.1 kcal/mol
- ΔH [4, 5]: -7.7 ± 0.2 kcal/mol
- ΔS [4, 5]: +3.8 + 0.6 cal/mol · K
